The values that follow come from patent US20070173488A1, “Pyrazolothiazole Protein Kinase Modulators” (SGX Pharmaceuticals, Inc., priority 2005, published 2007).

Test [1] deals with T1, AurA (Homo sapiens, UniProt O14965).
T1 construct: made in house; host or cells: Sf9 insect cells
T1 sequence (O14965 1-403): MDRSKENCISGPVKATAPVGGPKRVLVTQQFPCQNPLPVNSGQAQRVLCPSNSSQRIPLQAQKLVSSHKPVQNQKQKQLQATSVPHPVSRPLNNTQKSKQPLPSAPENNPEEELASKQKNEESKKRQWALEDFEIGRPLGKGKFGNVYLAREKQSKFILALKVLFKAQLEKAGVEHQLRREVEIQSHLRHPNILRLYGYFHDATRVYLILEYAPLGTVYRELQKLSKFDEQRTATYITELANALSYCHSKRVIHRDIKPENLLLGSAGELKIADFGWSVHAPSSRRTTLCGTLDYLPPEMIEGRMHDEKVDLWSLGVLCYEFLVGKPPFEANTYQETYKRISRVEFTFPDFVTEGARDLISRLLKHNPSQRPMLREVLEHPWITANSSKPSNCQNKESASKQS
Put plainly: AurA Luminescence-based Enzyme Assay (Kinase-Glo). In kind it is biochemical. The text has this:
Homogeneous luminescence-based inhibitor screening assays were developed for c-Abl, MET, AurA, and PDK1 kinases (among others). Each of these assays made use of an ATP depletion assay (Kinase-Glo™, Promega Corporation, Madison, Wis.) to quantitate kinase activity. The Kinase-Glo™ format uses a thermostable luciferase to generate luminescent signal from ATP remaining in solution following the kinase reaction. The luminescent signal is inversely correlated with the amount of kinase activity.
Dose response was analyzed using the equation: y=min+{(max−min)/(1 +10^[compound]-logIC50)}, where y is the observed initial slope, max=the slope in the absence of inhibitor, min=the slope at infinite inhibitor, and the IC50 is the [compound] that corresponds to ½ the total observed amplitude (Amplitude=max−min).
The Sf9 insect cell pellets (˜18 g) produced from 6 L of cultured cells expressing human Aurora-2 were resuspended in 50 mM Na Phosphate pH 8.0, 500 mM NaCl, 10% glycerol, 0.2% n-octyl-β-D-glucopyranoside (BOG) and 3 mM β-Mercaptoethanol (BME). One tablet of Roche Complete, EDTA-free protease inhibitor cocktail (Cat# 1873580) and 85 units Benzonase (Novagen Cat#70746-3)) were added per 1 L of original culture. Pellets were resuspended in approximately 50 ml per 1 L of original culture and were then sonicated on ice with two 30-45 sec bursts (100% duty cycle). Debris was removed by centrifugation and the supernatant was passed through a 0.8 μm syringe filter before being loaded onto a 5 ml Ni^2+ HiTrap column (Pharmacia). The column was washed with 6 column volumes of 50 mM Na Phosphate pH 8.0, 500 mM NaCl, 10% glycerol, 3 mM BME. The protein was eluted using a linear gradient of the same buffer containing 500 mM Imidazole. The eluant (24 ml) was cleaved overnight at 4° C. in a buffer containing 50 mM Na Phosphate pH 8.0, 500 mM NaCl, 10% glycerol, 3 mM BME and 10,000 units of TEV (Invitrogen Cat#10127-017). The protein was passed over a second nickel affinity column as described above; the flow-through was collected. The cleaved protein fractions were combined and concentrated using spin concentrators. Further purification was done by gel filtration chromatography on a S75 sizing column in 50 mM Na Phosphate (pH 8.0), 250mM NaCl, 1 mM EDTA, 0.1 mM AMP-PNP or ATP buffer, and 5 mM DTT. The cleanest fractions were combined and concentrated to approximately 8-11 mg/ml, and were either flash frozen in liquid nitrogen in 120 μl aliquots and stored at −80° C., or stored at 4° C.
AurA Luminescence-based Enzyme Assay
Materials: Kemptide peptide substrate=LRRASLG (Biopeptide, San Diego, Calif.), ATP (Sigma Cat#A-3377, FW=551), HEPES buffer, pH 7.5, 10% Brij 35 (Calbiochem Cat# 203728), MgCl2, Staurosporine (Streptomyces sp. Sigma Cat#85660-1MG), white Costar 384-well flat -bottom plate (VWR Cat#29444-088), Autophosphorylated AurA kinase (see below), Kinase-Glo™ (Promega Cat#V6712).
Stock Solutions: 10 mM Kemptide peptide (7.72 mg/ml in water), stored at −20° C.; 100 mM HEPES buffer +0.015% Brij 35, pH 7.5 (5 ml 1M HEPES stock +75 μL 10% Brij 35+45 ml miliQH2O); 10 mM ATP (5.51 mg/ml in dH2O) stored at −20° C. (diluted 50 μl into total of 10 ml miliQH2O daily=50 μM ATP working stock); 100 mM MgCl2; 200 μM Staurosporine, 2× Kinase-Glo™ reagent (made fresh or stored at −20° C.).
AurA Autophosphorylation Reaction: ATP and MgCl2 were added to 1-5 mg/ml AurA at final concentrations of 10 mM and 100 mM, respectively. The autophosphorylation reaction was incubated at 21° C. for 2-3 h. The reaction was stopped by the addition of EDTA to a final concentration of 50 mM, and samples were flash frozen with liquid N2 and stored at −80° C.
Standard Assay Setup for 384-well format (20 μl kinase reaction, 40 μL detection reaction): 10 mM MgCl2; 0.2mM Kemptide peptide; 1 μl test compound (in DMSO); 0.3 μg/ml Autophosphorylated AurA kinase; 10 μM ATP; 100 mM HEPES+0.015% Brij buffer. Positive controls contained DMSO with no test compound. […]

Test [2] has as its target T2, T315I Ba/F3 (Homo sapiens, UniProt P00519, T315I, cells depend on it, form not given).
T2 construct: The candidate is BCR (P11274) N-terminal part, as in Bcr-Abl p210 or p185
Put plainly: 96-well XTT cell survival assay (Ba/F3 cells). To be noted: 72 hours, read-out: T315I Ba/F3 XTT IC50. The class given is cell-based. The method, then: Ba/F3 cells were maintained in RPMI 1640 supplemented with 10% FBS, penicillin/streptomycin and 5 ng/ml recombinant mouse IL-3.
Compounds were tested in the following assays in duplicate.
96-well XTT assay (Ba/F3 cells): Cells were grown in growth media containing various concentrations of compounds (duplicates) on a 96-well plate for 72 hours at 37° C. The starting cell number was 5000-8000 cells per well and volume was 120 μl. At the end of the 72-hour incubation, 40 μl of XTT labeling mixture (50:1 solution of sodium 3′-[1-(phenylamino-carbonyl)-3,4-tetrazolium]-bis (4-methoxy-6-nitro) benzene sulfonic acid hydrate and Electron-coupling reagent: PMS (N-methyl dibenzopyrazine methyl sulfate) were added to each well of the plate. After an additional 2-6 hours of incubation at 37° C., the absorbance reading at 405 nm with background correction at 650 nm was measured with a spectrophotometer.
(Tetrazolium dyes change colour on reduction, which living cells bring about.)

pIC50: −log10 of the molar value.

Consider `O=C(Nc1nc2[nH]nc(-n3cncc3-c3cccc(F)c3F)c2s1)C1CC1` [Cyclopropanecarboxylic acid {3-[5-(2,3-difluoro-phenyl)-imidazol-1-yl]-1H-pyrazolo[3,4-d]thiazol-5-yl}-amide], for which the negative-log IC50 (pIC50) (as a rule, the negative decadic logarithm of the IC50, by convention in mol/L) in test [1] is 5.00 to 6.00. In addition, in test [2], the GI50 was 100 to 1000 nM.

Take `O=C(Nc1nc2[nH]nc(-n3cncc3-c3ccccc3)c2s1)C1CC1` [Cyclopropanecarboxylic acid [3-(5-phenyl-imidazol-1-yl)-1H-pyrazolo[3,4-d]thiazol-5-yl]-amide]: the pIC50 in test [1] was 5.00 to 6.00. Moreover, the GI50 in test [2] was 100 to 1000 nM.

`O=C(Nc1nc2[nH]nc(-n3cncc3-c3c(Cl)cccc3Cl)c2s1)C1CC1` [Cyclopropanecarboxylic acid {3-[5-(2,6-dichloro-phenyl)-imidazol-1-yl]-1H-pyrazolo[3,4-d]thiazol-5-yl}-amide]: the negative logarithm of the IC50 (pIC50) in test [1] is over 7.00. The GI50 in test [2] was in the range of 100 to 1000 nM.

The molecule `O=C(Nc1cc[nH]n1)Nc1nc2[nH]nc(-n3cncc3-c3ccccc3Cl)c2s1` [1-{3-[5-(2-Chloro-phenyl)-imidazol-1-yl]-1H-pyrazolo[3,4-d]thiazol-5-yl}-3-(1H-pyrazol-3-yl)-urea] had a pIC50 in test [1] of 5.00 to 6.00.

In test [1], `O=C(Nc1nc2[nH]nc(-n3cncc3-c3ccc4ccccc4c3)c2s1)C1CC1` [Cyclopropanecarboxylic acid [3-(5-naphthalen-2-yl-imidazol-1-yl)-1H-pyrazolo[3,4-d]thiazol-5-yl]-amide] gave a pIC50 of 5.00 to 6.00.

`O=C(Nc1nc2[nH]nc(-n3cncc3-c3ccccn3)c2s1)C1CC1` [Cyclopropanecarboxylic acid [3-(5-pyridin-2-yl-imidazol-1-yl)-1H-pyrazolo[3,4-d]thiazol-5-yl]-amide] gave a pIC50 in test [1] of under 5.00. Moreover, in test [2], the GI50 lay within 1000 to 10000 nM.

Consider `O=C(Nc1nc2[nH]nc(-n3cncc3-c3cc(Cl)cc(Cl)c3Cl)c2s1)C1CC1` [Cyclopropanecarboxylic acid {3-[5-(2,3,5-trichloro-phenyl)-imidazol-1-yl]-1H-pyrazolo[3,4-d]thiazol-5-yl}-amide], for which the negative-log IC50 (pIC50) in test [1] is 6.00 to 7.00.

Consider `O=C(Nc1nc2[nH]nc(-n3cncc3-c3c(Cl)ccc(Cl)c3Cl)c2s1)C1CC1` [Cyclopropanecarboxylic acid {3-[5-(2,3,6-trichloro-phenyl)-imidazol-1-yl]-1H-pyrazolo[3,4-d]thiazol-5-yl}-amide], for which, in test [1], the pIC50 was over 7.00. The GI50 in test [2] is 100 to 1000 nM.

Take `O=C(Nc1nc2[nH]nc(-n3cncc3-c3ccccc3Cl)c2s1)C1CC1` [Cyclopropanecarboxylic acid {3-[5-(2-chloro-phenyl)-imidazol-1-yl]-1H-pyrazolo[3,4-d]thiazol-5-yl}-amide]: the negative-log IC50 (pIC50) in test [1] is over 7.00. Further, the GI50 in test [2] lay in the range of 100 to 1000 nM.

In test [1], `CS(=O)(=O)c1ccc(F)cc1-c1cncn1-c1n[nH]c2nc(NC(=O)C3CC3)sc12` [Cyclopropanecarboxylic acid {3-[5-(5-fluoro-2-methanesulfonyl-phenyl)-imidazol-1-yl]-1H-pyrazolo[3,4-d]thiazol-5-yl}-amide] showed a pIC50 of 6.00 to 7.00.

`COc1ccc2nc(Cl)c(-c3cncn3-c3n[nH]c4nc(NC(=O)C5CC5)sc34)cc2c1` [Cyclopropanecarboxylic acid {3-[5-(2-chloro-6-methoxy-quinolin-3-yl)-imidazol-1-yl]-1H-pyrazolo[3,4-d]thiazol-5-yl}-amide] gave a pIC50 in test [1] of under 5.00.

On to `NC(=O)COc1ccc(-c2cncn2-c2n[nH]c3nc(NC(=O)C4CC4)sc23)c(Cl)c1` [Cyclopropanecarboxylic acid {3-[5-(4-carbamoylmethoxy-2-chloro-phenyl)-imidazol-1-yl]-1H-pyrazolo[3,4-d]thiazol-5-yl}-amide], for which the pIC50 in test [1] is 6.00 to 7.00.
